Like-named read-outs stand apart in the source and are kept apart here.
How the values were obtained:
Type in all cases: cell-based, human
HTT mRNA [1] = assay: Splicing RT-qPCR assay, HTT canonical (CJ) and alternative (AJ) junction mRNA; details: Homo sapiens, A673 or K562 cells, 24 hours compound treatment; for IC50: 24 h, read-out: HTT CJ (IC50, decrease in canonical junction mRNA); for AC50: read-out: HTT AJ (AC50, increase in alternative junction mRNA)
In short: (§1)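 A673 or K562 cells were treated 24 h at 37 °C with an 11-point 3-fold compound dilution series (top 10 uM, DMSO ≤0.25%). Lysates went to one-step RT-qPCR measuring canonical (CJ) and alternative-exon (AJ) junction transcripts, normalized to GAPDH, GUSB or PPIA.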

MYB mRNA = assay: Splicing RT-qPCR assay, MYB canonical (CJ) and alternative (AJ) junction mRNA; details: Homo sapiens; for AC50: read-out: MYB AJ (AC50, increase in alternative junction mRNA)
In short: as §1

SMN2 mRNA = assay: Splicing RT-qPCR gene panel, SMN2 canonical junction (CJ) mRNA; details: Homo sapiens, Tables 4A/4B, read-out: SMN2 (IC50, decrease in CJ mRNA, gene panel)
In short: (§2)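 A673 or K562 cells treated 24 h at 37° C. with an 11-point 3-fold dilution series (top 10 uM, ≤0.25% DMSO). Lysates analysed by one-step RT-qPCR for canonical exon-exon junction transcripts, normalized to GAPDH, GUSB or PPIA and DMSO control (2^(−ΔΔCt)), then converted to percentage response.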

Target C mRNA = assay: Splicing RT-qPCR gene panel, Target C canonical junction (CJ) mRNA; details: Tables 4A/4B, read-out: Target C (IC50, decrease in CJ mRNA, gene panel)
In short: as §2

HTT mRNA [2] = assay: Splicing RT-qPCR gene panel, HTT canonical junction (CJ) mRNA; details: Homo sapiens, Tables 4A/4B, read-out: HTT (IC50, decrease in CJ mRNA, gene panel)
In short: as §2

[3] = 24 h, A673 or K562 cells, 24 hours compound treatment, RT-qPCR
[4] = 24 h, A673 or K562 cells, 24 hours compound treatment, RT-qPCR, read-out: MYB CJ (IC50, decrease in canonical junction mRNA)
[5] = Tables 4A/4B, canonical junction qPCR panel, read-out: MYB (IC50, decrease in CJ mRNA, gene panel)

Row | SMILES | IC50 (HTT mRNA [1]) [µM] | IC50 (MYB mRNA; [4]) [µM] | IC50 (MYB mRNA; [5]) [µM] | IC50 (SMN2 mRNA) [µM] | IC50 (Target C mRNA; Homo sapiens) [µM] | IC50 (HTT mRNA [2]) [µM] | IC50 (Target C mRNA) [µM] | AC50 (HTT mRNA [1]) [µM] | AC50 (MYB mRNA; [3]) [µM]
1 | Cc1cn2cc(NC(=O)c3ccc(N(C)C4CC(C)(C)NC(C)(C)C4)c4cn(C)nc34)cc(F)c2n1 [Compound 244] | > 10 | > 10 | > 10 | 0.1 to 1 | > 10 | > 10 | – | > 10 | > 10
2 | CC1=NC2C=C(NC(=O)c3ccc(N(C)C4CCN(C)CC4)c4cn(C)nc34)C=C(F)C2=N1 (centres unmarked) [Compound 245] | 0.1 to 1 | 0.1 to 1 | 0.1 to 1 | < 0.1 | 0.1 to 1 | 0.1 to 1 | – | 0.1 to 1 | 0.1 to 1
3 | Cc1cn2nc(NC(=O)c3ccc(N4CCNCC4)c4cn(C)nc34)cc2c(C)n1 [Compound 247] | > 10 | > 10 | > 10 | > 10 | > 10 | > 10 | – | > 10 | > 10
4 | Cc1cn2cc(NC(=O)c3ccc(N4CCC(NC(C)(C)C)C4)c4cn(C)nc34)cc(F)c2n1 (centres unmarked) [Compound 249] | > 10 | 0.1 to 1 | 0.1 to 1 | < 0.1 | > 10 | > 10 | – | > 10 | 0.1 to 1
5 | Cc1cn2nc(NC(=O)c3ccc(N4CCNCC4)c4cn(C)nc34)nc2c(C)n1 [Compound 253] | > 10 | > 10 | > 10 | 1 to 10 | > 10 | > 10 | – | > 10 | > 10
6 | Cc1cn2cc(NC(=O)c3ccc(N4C[C@H]5CC[C@@H](C4)N5)c4cc(C)oc34)cc(F)c2n1 [Compound 255] | 1 to 10 | 0.1 to 1 | 0.1 to 1 | < 0.1 | > 10 | 1 to 10 | – | 1 to 10 | < 0.1
7 | Cc1cn2cc(NC(=O)c3ccc(N4C[C@H]5CC[C@@H](C4)N5)c4cn(C)nc34)cc(F)c2n1 [Compound 260] | 0.1 to 1 | < 0.1 | < 0.1 | 1 to 10 | 1 to 10 | 0.1 to 1 | – | 0.1 to 1 | < 0.1
8 | Cc1cc2c(N3CCNCC3)ccc(C(=O)Nc3ccc4cn(C)nc4c3)c2o1 [Compound 261] | > 10 | > 10 | > 10 | 1 to 10 | > 10 | > 10 | – | > 10 | > 10
9 | Cc1cn2nc(NC(=O)c3ccc(N4CCNCC4)c4cc(C)oc34)nc2c(C)n1 [Compound 264] | > 10 | > 10 | > 10 | > 10 | > 10 | > 10 | – | > 10 | > 10
10 | Cc1cn2nc(NC(=O)c3ccc(N4CCNCC4)c4cc(C)oc34)cc2c(C)n1 [Compound 265] | > 10 | > 10 | > 10 | 1 to 10 | > 10 | > 10 | – | > 10 | > 10
11 | Cc1cn2cc(NC(=O)c3ccc(N4CCNCC4)c4cc(C)oc34)cc(C)c2n1 [Compound 267] | > 10 | 1 to 10 | 1 to 10 | < 0.1 | > 10 | > 10 | – | 1 to 10 | 0.1 to 1
12 | Cc1cc2c(N3CCNCC3)ccc(C(=O)Nc3cn[nH]c3)c2o1 [Compound 268] | > 10 | > 10 | > 10 | > 10 | > 10 | > 10 | – | > 10 | > 10
13 | Cn1cc2c(N3CCNCC3)ccc(C(=O)Nc3cn[nH]c3)c2n1 [Compound 270] | > 10 | > 10 | > 10 | > 10 | > 10 | > 10 | – | > 10 | > 10

Continued, in another order:

Row | IC50 (HTT mRNA [1]) [µM] | IC50 (MYB mRNA; [4]) [µM] | IC50 (MYB mRNA; [5]) [µM] | IC50 (SMN2 mRNA) [µM] | IC50 (Target C mRNA; Homo sapiens) [µM] | IC50 (HTT mRNA [2]) [µM] | IC50 (Target C mRNA) [µM] | SMILES | AC50 (HTT mRNA [1]) [µM] | AC50 (MYB mRNA; [3]) [µM]
14 | 1 to 10 | 0.1 to 1 | 0.1 to 1 | < 0.1 | > 10 | 1 to 10 | – | CC1=CC2=NC(C)=NC2C=C1NC(=O)c1ccc(N2CCNCC2)c2cn(C)nc12 (centres unmarked) [Compound 237] | 1 to 10 | < 0.1
15 | 1 to 10 | 0.1 to 1 | 0.1 to 1 | < 0.1 | > 10 | 1 to 10 | – | Cc1cn2cc(NC(=O)c3ccc(N4CCNCC4)c4cn(C)nc34)cc(C)c2n1 [Compound 238] | 1 to 10 | 0.1 to 1
16 | 0.1 to 1 | < 0.1 | < 0.1 | < 0.1 | 1 to 10 | 0.1 to 1 | – | CCC1CN(c2ccc(C(=O)Nc3cc(F)c4nc(C)cn4c3)c3nn(C)cc23)CCN1 (centres unmarked) [Compound 239] | 0.1 to 1 | 0.1 to 1
17 | 0.1 to 1 | < 0.1 | < 0.1 | < 0.1 | 1 to 10 | 0.1 to 1 | – | CC1=NC2C=C(NC(=O)c3ccc(N4CCNC(C)(C)C4)c4cn(C)nc34)C=C(F)C2=N1 (centres unmarked) [Compound 240] | 0.1 to 1 | < 0.1
18 | 0.1 to 1 | < 0.1 | < 0.1 | < 0.1 | 1 to 10 | 0.1 to 1 | – | Cc1cn2cc(NC(=O)c3ccc(N4CC5(CNC5)C4)c4cn(C)nc34)cc(F)c2n1 [Compound 242] | 1 to 10 | 0.1 to 1
19 | 0.1 to 1 | < 0.1 | < 0.1 | < 0.1 | 1 to 10 | 0.1 to 1 | – | Cc1cn2cc(NC(=O)c3ccc(N4CC5(CN(C)C5)C4)c4cn(C)nc34)cc(F)c2n1 [Compound 243] | 0.1 to 1 | < 0.1
20 | 1 to 10 | < 0.1 | < 0.1 | < 0.1 | > 10 | 1 to 10 | – | Cc1cn2cc(NC(=O)c3ccc(N4CCNCC4)c4cn(C)nc34)ncc2n1 [Compound 246] | 1 to 10 | < 0.1
21 | 1 to 10 | 0.1 to 1 | 0.1 to 1 | < 0.1 | > 10 | 1 to 10 | – | Cc1cn2cc(NC(=O)c3ccc(C4CCN(C)CC4)c4cc(C)oc34)cc(F)c2n1 [Compound 256] | 1 to 10 | 0.1 to 1
22 | 1 to 10 | 0.1 to 1 | 0.1 to 1 | < 0.1 | > 10 | 1 to 10 | – | CCN1CCC(c2ccc(C(=O)Nc3cc(F)c4nc(C)cn4c3)c3oc(C)cc23)CC1 [Compound 257] | 1 to 10 | 0.1 to 1
23 | 1 to 10 | < 0.1 | < 0.1 | < 0.1 | 1 to 10 | 1 to 10 | – | Cc1cn2cc(NC(=O)c3ccc(N4CCC(N(C)C)C4)c4cn(C)nc34)cc(F)c2n1 (centres unmarked) [Compound 258] | 0.1 to 1 | < 0.1
24 | 1 to 10 | 0.1 to 1 | 0.1 to 1 | < 0.1 | 1 to 10 | 1 to 10 | – | Cc1cn2cc(NC(=O)c3ccc(N4CCC(NC(C)(C)C)CC4)c4cn(C)nc34)cc(F)c2n1 [Compound 259] | 1 to 10 | 1 to 10
25 | 1 to 10 | 0.1 to 1 | 0.1 to 1 | < 0.1 | > 10 | 1 to 10 | – | Cc1cn2cc(NC(=O)c3ccc(N4CCNCC4)c4cc(C)oc34)c(C)cc2n1 [Compound 262] | 1 to 10 | 0.1 to 1
26 | 1 to 10 | 0.1 to 1 | 0.1 to 1 | < 0.1 | 1 to 10 | 1 to 10 | – | Cc1cn2cc(NC(=O)c3ccc(N4CCNCC4)c4cc(C)oc34)ncc2n1 [Compound 263] | 1 to 10 | 0.1 to 1
27 | 1 to 10 | 0.1 to 1 | 0.1 to 1 | < 0.1 | > 10 | 1 to 10 | – | Cc1cn2cc(NC(=O)c3ccc(N4CCNCC4)c4cc(C)oc34)cc(Cl)c2n1 [Compound 266] | 1 to 10 | < 0.1
28 | 0.1 to 1 | < 0.1 | < 0.1 | < 0.1 | – | 0.1 to 1 | 1 to 10 | Cc1cn2cc(NC(=O)c3ccc(N4CCNCC4)c4cn(C)nc34)cc(Cl)c2n1 [Compound 269] | 0.1 to 1 | < 0.1

— patent publication US20250154169A1, “COMPOUNDS AND METHODS FOR MODULATING SPLICING” (REMIX THERAPEUTICS INC., priority 2021, published 2025)
